Reference: patent publication US11584748B2, “Spirocyclic compounds” (priority 2018, dated 2023)

Biological target: hCereblon(M1-L442)_hDDB1(M1-H1140) (Homo sapiens (Human), UniProt Q96SW2)
Assay: Fluorescence direct binding (tryptophan fluorescence titration)
Conditions: 20° C., excitation 280 nm, emission 340 nm, 50 mM Hepes 7.4 200 mM NaCl; read-out: Fluorescence h-Cereblon_DDB1 Mean Kd_EQ
Experimental: Fluorescence Direct Binding Protocol
Determination of the affinities of compounds to protein containing one or more tryptophan is measurable by monitoring the fluorescence emission in direct mode. The measurements, depending on the protein available amounts, were performed either manually in a cuvette on ISS-PCI photon counting spectrofluorometer or automatically in well plates on a fluorescence plate reader device. Fluorescence titrations were performed at 20° C. in the chosen binding assay buffer by using a defined constant protein concentration against ligand concentration variations. Small aliquots of known ligand concentration solubilized in DMSO were added and the fluorescence, excited at 280 nm, was recorded at 340 nm.

hCereblon(M1-L442)_hDDB1(M1-H1140), sequence (Q96SW2 whole entry, looked up): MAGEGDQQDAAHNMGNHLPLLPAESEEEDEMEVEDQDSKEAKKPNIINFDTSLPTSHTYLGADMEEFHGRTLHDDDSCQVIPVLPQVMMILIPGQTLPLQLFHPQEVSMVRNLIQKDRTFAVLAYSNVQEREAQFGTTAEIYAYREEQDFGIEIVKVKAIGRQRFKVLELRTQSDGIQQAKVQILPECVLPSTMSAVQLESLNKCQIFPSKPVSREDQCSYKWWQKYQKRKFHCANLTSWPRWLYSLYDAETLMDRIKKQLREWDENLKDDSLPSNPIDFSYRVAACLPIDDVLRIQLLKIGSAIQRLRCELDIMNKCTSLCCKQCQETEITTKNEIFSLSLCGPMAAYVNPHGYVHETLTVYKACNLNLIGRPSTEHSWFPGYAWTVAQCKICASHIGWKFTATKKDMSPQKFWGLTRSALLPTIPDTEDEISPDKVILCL
hCereblon(M1-L442)_hDDB1(M1-H1140), sequence (Q16531 whole entry partner, looked up): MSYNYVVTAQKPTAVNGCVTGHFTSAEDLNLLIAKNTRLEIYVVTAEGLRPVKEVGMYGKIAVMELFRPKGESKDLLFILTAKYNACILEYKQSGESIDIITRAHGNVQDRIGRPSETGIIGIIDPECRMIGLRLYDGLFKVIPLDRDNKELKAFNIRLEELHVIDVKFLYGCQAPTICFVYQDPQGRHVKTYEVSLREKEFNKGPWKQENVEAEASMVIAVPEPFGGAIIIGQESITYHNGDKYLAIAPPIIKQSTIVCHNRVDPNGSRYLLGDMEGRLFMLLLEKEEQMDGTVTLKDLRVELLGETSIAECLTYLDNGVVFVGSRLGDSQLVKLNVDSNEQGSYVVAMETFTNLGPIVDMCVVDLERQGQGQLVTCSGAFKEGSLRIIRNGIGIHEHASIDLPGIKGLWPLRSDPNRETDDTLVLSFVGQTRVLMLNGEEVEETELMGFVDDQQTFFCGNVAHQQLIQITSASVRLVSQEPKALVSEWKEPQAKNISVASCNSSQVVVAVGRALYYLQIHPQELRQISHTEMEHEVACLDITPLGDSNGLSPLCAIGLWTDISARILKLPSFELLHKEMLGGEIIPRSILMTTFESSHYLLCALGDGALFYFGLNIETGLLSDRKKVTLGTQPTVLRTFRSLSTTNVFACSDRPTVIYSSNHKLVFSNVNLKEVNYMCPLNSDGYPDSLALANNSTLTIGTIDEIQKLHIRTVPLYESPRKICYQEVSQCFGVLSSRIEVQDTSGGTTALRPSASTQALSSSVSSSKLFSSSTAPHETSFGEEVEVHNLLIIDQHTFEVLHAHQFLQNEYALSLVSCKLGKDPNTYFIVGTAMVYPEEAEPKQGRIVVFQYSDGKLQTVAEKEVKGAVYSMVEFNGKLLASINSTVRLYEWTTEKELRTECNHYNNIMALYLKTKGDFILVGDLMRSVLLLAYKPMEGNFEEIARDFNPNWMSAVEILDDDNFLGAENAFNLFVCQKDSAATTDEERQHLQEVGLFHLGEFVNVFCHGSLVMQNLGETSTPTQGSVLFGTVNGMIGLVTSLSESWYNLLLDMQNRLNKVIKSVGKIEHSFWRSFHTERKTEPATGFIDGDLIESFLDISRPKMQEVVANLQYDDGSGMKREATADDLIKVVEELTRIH

| SMILES | Kd |
| --- | --- |
| O=C1NC(=O)C2(CCN(c3ccc([N+](=O)[O-])cn3)CC2)N1 [Example 69, 8-(5-nitropyridin-2-yl)-1,3,8-triazaspiro[4.5] decane-2,4-dione] | 7 nM |
| O=C1CC2(CCN(c3ccc([N+](=O)[O-])cn3)CC2)C(=O)N1 [Example 70, 8-(5-nitropyridin-2-yl)-2,8-diazaspiro[4.5] decane-1,3-dione] | 23 nM |
| O=C1CC2(CCN(c3nc4ccccc4s3)CC2)C(=O)N1 [Example 71, 8-(benzo[d]thiazol-2-yl)-2,8-diazaspiro[4.5] decane-1,3-dione] | 2 nM |
| O=C1NC(=O)C2(CCN(c3ccc([N+](=O)[O-])cc3)CC2)N1 [Example 72, 8-(4-nitrophenyl)-1,3,8-triazaspiro[4.5] decane-2,4-dione] | < 1 nM |
| COC(=O)c1ccc(N2CCC3(CC2)CC(=O)NC3=O)nc1 [Example 74, methyl 6-(1,3-dioxo-2,8-diazaspiro[4.5]decan-8-yl)nicotinate] | 11 nM |
| O=C1CC2(CCN(C(=O)c3ccccc3)CC2)C(=O)N1 [Example 75, 8-benzoyl-2,8-diazaspiro[4.5] decane-1,3-dione] | < 1 nM |
| O=C1NC(=O)C2(CCN(C(=O)c3ccc4scnc4c3)CC2)N1 [Example 81, 8-(benzo[d]thiazole-5-carbonyl)-1,3,8-triazaspiro[4.5] decane-2,4-dione] | 6 nM |
